Test results as given in patent publication US8414923B2, “Immobilization of bioactive molecules within a polymeric substrate” (priority 2007, dated 2013).
Values joined by “and” are separate entries in the source; they are usually repeats but may differ in a detail not shown here. Equal entries are not always repeated.

Key:
[1] = patients under insulin treatment; cited from earlier work
[2] = cited from earlier work
BALB/c mice = assay: Glycemia after oral insulin solution (not seized in polymer) in BALB/c mice; format: in vivo; details: for Glycemia: oral insulin solution 4 IU/kg, group averages (4 groups of 5 mice)
Procedure: Excipients: Zinc Chloride, glycerol, metacresol, Sodium hydroxide, Chloridic acid, and water suitable for injections. • The irradiation conditions ensuring the best quality of the final product has been described. • Its release or liberation under laboratory conditions and in laboratory animals has been studied. • Bioavailability in laboratory animals, has been studied. • Laboratory experimental pharmacological steps are included. The determination of glycemia in blood is performed employing the following apparatus:
Measuring type device: Accu-Chek Active
The measured values listed in the table are shown averaged in FIG. 1.
GLYCEMIA as a function of time, averaged in four groups of BALB/c mice (five mice in each group), to which oral insulin solution (4 IU/kg) was administered (insulin without been seized into polymer).

[3] = average action profile after subcutaneous injection

Biosynthetic human insulin
Frequency of changes in the levels of glucose in the blood [1]: < 1/1000
Action profile: Duration [2, 3]: 7 to 8 h
Action profile: Initial [2, 3]: within the first half hour
Bond to plasmatic proteins ([2]; except circulating insulin antibodies): No significative bond to plasmatic proteins
Average life (t½) of insulin in the bloodstream ([2]; in bloodstream): only of a few minutes
t½ ([2]; injected (subcutaneous) insulin, clinical studies, determined by absorption): 2 to 5 h
Change of glycemia in mice (BALB/c mice; 30 to 75 minutes after oral administration of insulin solution): slight diminution of glycemia
Glycemia (BALB/c mice; time 0 min): 100 mg/dL and 102 mg/dL and 105 mg/dL
Glycemia (BALB/c mice; time 15 min): 98 mg/dL and 97 mg/dL and 96 mg/dL
Glycemia (BALB/c mice; time 30 min): 101 mg/dL and 102 mg/dL and 103 mg/dL and 105 mg/dL
Glycemia (BALB/c mice; time 60 min): 90 mg/dL and 93 mg/dL and 98 mg/dL and 96 mg/dL
Glycemia (BALB/c mice; time 90 min): 93 mg/dL and 95 mg/dL and 90 mg/dL and 94 mg/dL
Glycemia (BALB/c mice; time 180 min): 104 mg/dL and 102 mg/dL and 105 mg/dL and 100 mg/dL
